# Source: patent US10221161B2, “Inhibitors of plasma kallikrein” (Kalvista Pharmaceuticals Limited, priority 2013, dated 2019)
# Legend:
# [1] = biological target: Human KLK1 (Homo sapiens (Human), UniProt P06870); test: Determination of the IC50 for KLK1 (fluorogenic substrate H-DVal-Leu-Arg-AFC); format: biochemical; details: human KLK1, 37° C.
# Procedure: Selected compounds were further screened for inhibitory activity against the related enzyme KLK1. The ability of the compounds of formula (I) to inhibit KLK1 may be determined using the following biological assay:
# Determination of the IC50 for KLK1
# KLK1 inhibitory activity in vitro was determined using standard published methods (see e.g. Johansen et al., Int. J. Tiss. Reac. 1986, 8, 185; Shori et al., Biochem. Pharmacol., 1992, 43, 1209; Stürzebecher et al., Biol. Chem. Hoppe-Seyler, 1992, 373, 1025). Human KLK1 (Callbiochem) was incubated at 37° C. with the fluorogenic substrate H-DVal-Leu-Arg-AFC and various concentrations of the test compound. Residual enzyme activity (initial rate of reaction) was determined by measuring the change in optical absorbance at 410 nm and the IC50 value for the test compound was determined.
# [2] = biological target: Human plasma kallikrein (Homo sapiens (Human), UniProt P03952); test: Determination of the IC50 for plasma kallikrein (fluorogenic substrate H-DPro-Phe-Arg-AFC); format: biochemical; details: 37° C., read-out: IC50 (human PKal)
# Procedure: Determination of the IC50 Plasma Kallikrein Plasma kallikrein inhibitory activity in vitro was determined using standard published methods (see e.g. Johansen et al., Int. J. Tiss. […] Shori et al., Biochem. Pharmacol., 1992, 43, 1209; Stürzebecher et al., Biol. Chem. Hoppe-Seyler, 1992, 373, 1025). Human plasma kallikrein (Protogen) was incubated at 37° C. with the fluorogenic substrate […] and various concentrations of the test compound.
# Chain of Human KLK1 (P06870 25-262): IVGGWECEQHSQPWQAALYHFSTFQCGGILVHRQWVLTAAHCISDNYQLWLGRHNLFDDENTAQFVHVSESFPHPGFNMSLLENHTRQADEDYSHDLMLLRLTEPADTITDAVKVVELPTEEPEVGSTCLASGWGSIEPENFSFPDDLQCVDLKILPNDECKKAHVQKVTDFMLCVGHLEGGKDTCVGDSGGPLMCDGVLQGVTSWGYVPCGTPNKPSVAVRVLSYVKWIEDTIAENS
# Chain of Human plasma kallikrein (P03952 391-638 limits assumed): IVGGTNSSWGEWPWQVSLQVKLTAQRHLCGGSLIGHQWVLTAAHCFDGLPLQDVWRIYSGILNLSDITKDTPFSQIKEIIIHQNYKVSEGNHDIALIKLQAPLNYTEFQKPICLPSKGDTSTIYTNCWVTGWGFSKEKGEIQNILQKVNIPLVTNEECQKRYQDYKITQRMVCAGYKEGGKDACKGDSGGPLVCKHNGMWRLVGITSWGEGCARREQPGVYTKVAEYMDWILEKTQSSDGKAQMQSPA
# Chain of Human plasma kallikrein (P03952 20-390 partner limits assumed): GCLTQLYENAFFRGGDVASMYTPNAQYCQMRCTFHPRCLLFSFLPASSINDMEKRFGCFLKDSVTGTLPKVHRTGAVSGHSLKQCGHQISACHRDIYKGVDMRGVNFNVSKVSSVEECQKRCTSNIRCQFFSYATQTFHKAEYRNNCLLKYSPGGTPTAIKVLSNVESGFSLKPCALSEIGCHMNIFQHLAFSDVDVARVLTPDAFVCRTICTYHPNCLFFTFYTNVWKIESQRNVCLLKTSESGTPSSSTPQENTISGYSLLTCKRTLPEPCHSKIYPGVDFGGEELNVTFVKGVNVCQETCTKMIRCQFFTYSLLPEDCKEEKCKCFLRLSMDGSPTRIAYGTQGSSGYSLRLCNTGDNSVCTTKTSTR
IC50 [1] [µM],IC50 [2] [µM],SMILES
> 40,1.02,"COCCOc1ccc(Cc2cncc(C(=O)NCc3ccc4c(N)nccc4c3)c2)cc1 [Example 34, N-[(1-Aminoisoquinolin-6-yl)methyl]-5-{[4-(2-methoxyethoxy)phenyl]methyl}pyridine-3-carboxamide]"
3.02,0.194,"Cc1ccc2cc(Cc3cncc(C(=O)NCc4ccc5c(N)nccc5c4)n3)ccc2n1 [Example 10, N-[(1-Aminoisoquinolin-6-yl)methyl]-6-[(2-methylquinolin-6-yl)methyl]pyrazine-2-carboxamide]"
5.34,0.61,"CN1CCN(c2ccc(Cc3cncc(C(=O)NCc4ccc5c(N)nccc5c4)c3)cn2)CC1 [Example 64, N-[(1-Aminoisoquinolin-6-yl)methyl]-5-{[6-(4-methylpiperazin-1-yl)pyridin-3-yl]methyl}pyridine-3-carboxamide]"
5.34,0.0308,"Cc1cnn(Cc2ccc(Cc3cncc(C(=O)NCc4ccc5c(N)nccc5c4)n3)cc2)c1 [Example 9, N-[(1-Aminoisoquinolin-6-yl)methyl]-6-({4-[(4-methylpyrazol-1-yl)methyl]phenyl}methyl)pyrazine-2-carboxamide]"
1.12,0.0275,"Cc1ccc2cc(Cc3cncc(C(=O)NCc4ccc5c(N)nccc5c4)c3)ccc2n1 [Example 17, N-[(1-Aminoisoquinolin-6-yl)methyl]-5-[(2-methylquinolin-6-yl)methyl]pyridine-3-carboxamide]"
17.1,0.0171,"COc1cc(Cc2cncc(C(=O)NCc3ccc4c(N)nccc4c3)c2)ccc1Cn1cc(C)cn1 [Example 33, N-[(1-Aminoisoquinolin-6-yl)methyl]-5-({3-methoxy-4-[(4-methylpyrazol-1-yl)methyl]phenyl}methyl)pyridine-3-carboxamide]"
4.46,0.395,"CN1CCN(c2cc(Cc3cncc(C(=O)NCc4ccc5c(N)nccc5c4)c3)ccn2)CC1 [Example 86, N-[(1-Aminoisoquinolin-6-yl)methyl]-5-{[2-(4-methylpiperazin-1-yl)pyridin-4-yl]methyl}pyridine-3-carboxamide]"
4.8,0.0377,"Nc1nccc2cc(CNC(=O)c3cncc(Cc4ccnc(N5CCCC5)c4)c3)ccc12 [Example 77, N-[(1-Aminoisoquinolin-6-yl)methyl]-5-{[2-(pyrrolidin-1-yl)pyridin-4-yl]methyl}pyridine-3-carboxamide]"
5.15,0.0733,"Nc1nccc2cc(CNC(=O)c3cncc(Cc4ccc(N5CCCC5CO)nc4)c3)ccc12 (centres unmarked) [Example 67, N-[(1-Aminoisoquinolin-6-yl)methyl]-5-({6-[2-(hydroxymethyl)pyrrolidin-1-yl]pyridin-3-yl}methyl)pyridine-3-carboxamide]"
6.69,0.0511,"CC(C)N(C)c1ccc(Cc2cncc(C(=O)NCc3ccc4c(N)nccc4c3)c2)cn1 [Example 73, N-[(1-Aminoisoquinolin-6-yl)methyl]-5-({6-[isopropyl(methyl)amino]pyridin-3-yl}methyl)pyridine-3-carboxamide]"
6.01,0.417,"Nc1nccc2cc(CNC(=O)c3cncc(Cc4ccc(N5CCC(O)C5)nc4)c3)ccc12 (centres unmarked) [Example 59, N-[(1-Aminoisoquinolin-6-yl)methyl]-5-{[6-(3-hydroxypyrrolidin-1-yl)pyridin-3-yl]methyl}pyridine-3-carboxamide]"
> 10,0.432,"Nc1nccc2cc(CNC(=O)c3cncc(Cc4ccc(N5CCOCC5)nc4)c3)ccc12 [Example 63, N-[(1-Aminoisoquinolin-6-yl)methyl]-5-{[6-(morpholin-4-yl)pyridin-3-yl]methyl}pyridine-3-carboxamide]"
4.13,0.144,"Nc1nccc2cc(CNC(=O)c3cncc(Cc4ccc5ncccc5c4)c3)ccc12 [Example 31, N-[(1-Aminoisoquinolin-6-yl)methyl]-5-(quinolin-6-ylmethyl)pyridine-3-carboxamide]"
8.89,0.255,"COC1CCN(c2ccc(Cc3cncc(C(=O)NCc4ccc5c(N)nccc5c4)c3)cn2)C1 (centres unmarked) [Example 62, N-[(1-Aminoisoquinolin-6-yl)methyl]-5-{[6-(3-methoxypyrrolidin-1-yl)pyridin-3-yl]methyl}pyridine-3-carboxamide]"
> 10,10,"Nc1nccc2cc(CNC(=O)c3cncc(CN4CCN(CC(=O)O)CC4)c3)ccc12 [Example 52, {4-[(5-{[(1-Aminoisoquinolin-6-yl)methyl]carbamoyl}pyridin-3-yl)methyl]piperazin-1-yl}acetic acid]"
> 40,,Cc1cnn(Cc2ccc(Cc3ccnc(C(=O)NCc4cnc5[nH]ccc5c4)c3)cc2)c1 [Example 4]
5.99,0.0533,"CNc1ncc(C(=O)NCc2ccc3c(N)nccc3c2)cc1Cc1ccc2nc(C)ccc2c1 [Example 21, N-[(1-Aminoisoquinolin-6-yl)methyl]-6-(methylamino)-5-[(2-methylquinolin-6-yl)methyl]pyridine-3-carboxamide]"
3.51,0.375,"CN(C)[C@H]1CCN(c2ccc(Cc3cncc(C(=O)NCc4ccc5c(N)nccc5c4)c3)cn2)C1 (stereo in doubt) [Example 68, N-[(1-Aminoisoquinolin-6-yl)methyl]-5-({6-[3-(dimethylamino)pyrrolidin-1-yl]pyridin-3-yl}methyl)pyridine-3-carboxamide]"
> 40,0.00747,"Cc1cnn(Cc2ccc(Cc3cncc(C(=O)NCc4c(C)cc(CN)cc4C)c3)cc2)c1 [Example 94, N-{[4-(Aminomethyl)-2,6-dimethylphenyl]methyl}-5-({4-[(4-methylpyrazol-1-yl)methyl]phenyl}methyl)pyridine-3-carboxamide]"
3.62,0.86,"CCOC(=O)C1CCN(c2ccc(Cc3cncc(C(=O)NCc4ccc5c(N)nccc5c4)c3)cn2)C1 (centres unmarked) [Example 72, Ethyl 1-{5-[(5-{[(1-aminoisoquinolin-6-yl)methyl]carbamoyl}pyridin-3-yl)methyl]pyridin-2-yl}pyrrolidine-3-carboxylate]"
2.11,1.71,"CN(C)[C@H]1CCN(c2cc(Cc3cncc(C(=O)NCc4ccc5c(N)nccc5c4)c3)ccn2)C1 (stereo in doubt) [Example 91, N-[(1-Aminoisoquinolin-6-yl)methyl]-5-({2-[3-(dimethylamino)pyrrolidin-1-yl]pyridin-4-yl}methyl)pyridine-3-carboxamide]"
> 10,1.74,"CC(C)Oc1ccc(Cc2cncc(C(=O)NCc3ccc4c(N)nccc4c3)c2)cn1 [Example 70, N-[(1-Aminoisoquinolin-6-yl)methyl]-5-[(6-isopropoxypyridin-3-yl)methyl]pyridine-3-carboxamide]"
> 10,,"Cc1cnn(Cc2ccc(Cc3cncc(C(=O)NCc4ccc5c(N)nccc5c4)c3)cc2)c1 [Example 1, N-[(1-Aminoisoquinolin-6-yl)methyl]-({4-[(4-methylpyrazol-1-yl)methyl]phenyl}methyl)pyridine-3-carboxamide]"
,10,"Nc1nccc2cc(CNC(=O)c3cncc(CN4CCN(c5ccccc5)CC4)c3)ccc12 [Example 39, N-[(1-Aminoisoquinolin-6-yl)methyl]-5-[(4-phenylpiperazin-1-yl)methyl]pyridine-3-carboxamide]"
> 10,,Cc1cnn(Cc2ccc(Cc3cncc(C(=O)NCc4cnc5[nH]ccc5c4)c3)cc2)c1 [Example 2]

SMILES,IC50 [1] [µM],IC50 [2] [µM]
"COc1cccc(CN2CCN(Cc3cncc(C(=O)NCc4ccc5c(N)nccc5c4)c3)CC2)c1 [Example 49, N-[(1-Aminoisoquinolin-6-yl)methyl]-5-({4-[(3-methoxyphenyl)methyl]piperazin-1-yl}methyl)pyridine-3-carboxamide]",> 10,6.99
"Nc1nccc2cc(CNC(=O)c3cncc(Cc4ccc5ccncc5c4)c3)ccc12 [Example 28, N-[(1-Aminoisoquinolin-6-yl)methyl]-5-(isoquinolin-7-ylmethyl)pyridine-3-carboxamide]",5.9,1.1
"COc1ccccc1Cc1cncc(C(=O)NCc2ccc3c(N)nccc3c2)c1 [Example 29, N-[(1-Aminoisoquinolin-6-yl)methyl]-5-[(2-methoxyphenyl)methyl]pyridine-3-carboxamide]",7.35,20.2
"Cc1cnn(Cc2ccc(Cc3cncc(C(=O)NCc4c(C)nc5[nH]ccc(C)c4-5)c3)cc2)c1 [Example 12, N-({2,4-Dimethyl-7H-pyrrolo[2,3-b]pyridin-3-yl}methyl)-5-({4-[(4-methylpyrazol-1-yl)methyl]phenyl}methyl)pyridine-3-carboxamide]",14.9,0.244
"Nc1nccc2cc(CNC(=O)c3cncc(Cc4ccc(N5CCCC5=O)nc4)c3)ccc12 [Example 53, N-[(1-Aminoisoquinolin-6-yl)methyl]-5-{[6-(2-oxopyrrolidin-1-yl)pyridin-3-yl]methyl}pyridine-3-carboxamide]",3.86,0.2
